Experimental data taken from patent publication US7994140B2, “Classes of compounds that interact with GPCRs” (Alchemia Limited, priority 2002, dated 2011).

Biological target: T1, MC4 (Homo sapiens, UniProt P32245)
T1 construct: purchased Perkin Elmer BioSignal; host or cells: HEK 293
Assay: GPCR radioligand binding (RLB) assay, melanocortin MC4, [125I]NDP-αMSH
Details: 10 micromolar compound; recombinant human receptor membranes (HEK 293)
Procedure, shortened: (§1)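 Competition binding against radioligand ([125I]NDP-αMSH for MC4, [125I]SST-14 for SST5) on membranes of HEK 293 cells carrying the human receptor; buffer and incubation time optimized per receptor. Filtration through 0.5% PEI-treated glass fiber, washing, then scintillation counting.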

T1 sequence (P32245 whole entry): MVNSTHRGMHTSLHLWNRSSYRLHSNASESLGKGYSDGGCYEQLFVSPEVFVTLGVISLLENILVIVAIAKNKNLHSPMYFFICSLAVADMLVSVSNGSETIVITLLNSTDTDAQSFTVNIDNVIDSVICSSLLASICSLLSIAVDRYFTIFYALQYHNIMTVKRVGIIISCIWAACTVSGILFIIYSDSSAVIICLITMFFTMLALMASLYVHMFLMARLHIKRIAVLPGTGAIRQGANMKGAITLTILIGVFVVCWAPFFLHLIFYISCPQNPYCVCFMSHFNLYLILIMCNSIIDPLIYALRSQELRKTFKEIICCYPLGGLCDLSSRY

SMILES | MC4 inhibition at 10 micromolar
COC[C@H]1OC(OCc2ccc(-c3ccccc3)cc2)[C@H](NC(=O)CCCN)[C@@H](OCc2ccc(Cl)cc2)[C@@H]1O (some centres unmarked) [Compound 33] | + (Indicates inhibition greater than . . . 50%)
CSC1OC(COCc2ccccc2)C(O)C(OCc2ccc3ccccc3c2)C1NC(=O)CCCNC(=N)N (centres unmarked) [Compound 196] | + (Indicates inhibition greater than . . . 50%)
COC1C(O)C(COCc2ccc3ccccc3c2)OC(OCc2ccc(Cl)cc2)C1NC(=O)CCCN (centres unmarked) [Compound 89] | + (Indicates inhibition greater than . . . 50%)
CSC1OC(COCc2ccc3ccccc3c2)C(O)C(OCc2ccc3ccccc3c2)C1NC(=O)CNC(=N)N (centres unmarked) [Compound 210] | + (Indicates inhibition greater than . . . 50%)
CSC1OC(COCc2ccc(-c3ccccc3)cc2)C(O)C(OCc2ccc(Cl)cc2)C1NC(=O)CCN (centres unmarked) [Compound 157] | + (Indicates inhibition greater than . . . 50%)
CSC1OC(COCc2ccc(Cl)cc2)C(O)C(OCc2ccc3ccccc3c2)C1NC(=O)CCNC(=N)N (centres unmarked) [Compound 200] | + (Indicates inhibition greater than . . . 50%)
COC[C@H]1OC(OCc2ccc3ccccc3c2)[C@H](NC(=O)CCNC(=N)N)[C@@H](OCc2ccc3ccccc3c2)[C@@H]1O (some centres unmarked) [Compound 38] | + (Indicates inhibition greater than . . . 50%)

Same assay, conditions: 10 micromolar; Example Library 4

SMILES | MC4 inhibition at 10 micromolar
COCC1OC(OCc2ccccc2)C(NC(=O)CCN)C(OCc2ccc(-c3ccccc3)cc2)C1O (centres unmarked) [Compound 227] | + (Indicates inhibition greater than . . . 50%)
COCC1OC(OCc2ccc(Cl)cc2)C(NC(=O)CCCNC(=N)N)C(OCc2ccc3ccccc3c2)C1O (centres unmarked) [Compound 259] | + (Indicates inhibition greater than . . . 50%)
COCC1OC(OCc2ccc(Cl)cc2)C(NC(=O)CCNC(=N)N)C(OCc2ccccc2)C1O (centres unmarked) [Compound 239] | + (Indicates inhibition greater than . . . 50%)

Biological target: T2, SST5 (Homo sapiens, UniProt P35346)
T2 construct: purchased Perkin Elmer BioSignal; host or cells: HEK 293
T2 sequence (P35346 whole entry): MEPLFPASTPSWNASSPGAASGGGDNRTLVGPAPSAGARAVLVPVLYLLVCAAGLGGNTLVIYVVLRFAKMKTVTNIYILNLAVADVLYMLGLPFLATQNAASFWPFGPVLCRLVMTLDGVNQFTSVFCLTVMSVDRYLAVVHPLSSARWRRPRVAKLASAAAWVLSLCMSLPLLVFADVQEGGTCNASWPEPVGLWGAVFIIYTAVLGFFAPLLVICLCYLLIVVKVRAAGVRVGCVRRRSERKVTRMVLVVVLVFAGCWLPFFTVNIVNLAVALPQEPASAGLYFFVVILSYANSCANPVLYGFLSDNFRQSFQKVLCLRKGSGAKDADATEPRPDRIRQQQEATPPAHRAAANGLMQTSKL
Assay: GPCR radioligand binding (RLB) assay, somatostatin SST5, [125I]SST-14
Details: 10 micromolar compound; recombinant human receptor membranes (HEK 293)
Procedure, shortened: as §1

SMILES | SST5 inhibition at 10 micromolar
COC[C@H]1OC(OCc2ccc(-c3ccccc3)cc2)[C@H](NC(=O)CCCN)[C@@H](OCc2ccc(Cl)cc2)[C@@H]1O (some centres unmarked) [Compound 33] | + (Indicates inhibition greater than . . . 50%)
CSC1OC(COCc2ccccc2)C(O)C(OCc2ccc3ccccc3c2)C1NC(=O)CCCNC(=N)N (centres unmarked) [Compound 196] | + (Indicates inhibition greater than . . . 50%)
COC1C(O)C(COCc2ccc3ccccc3c2)OC(OCc2ccc(Cl)cc2)C1NC(=O)CCCN (centres unmarked) [Compound 89] | + (Indicates inhibition greater than . . . 50%)
CSC1OC(COCc2ccc3ccccc3c2)C(O)C(OCc2ccc3ccccc3c2)C1NC(=O)CNC(=N)N (centres unmarked) [Compound 210] | + (Indicates inhibition greater than . . . 50%)
CSC1OC(COCc2ccc(-c3ccccc3)cc2)C(O)C(OCc2ccc(Cl)cc2)C1NC(=O)CCN (centres unmarked) [Compound 157] | + (Indicates inhibition greater than . . . 50%)
CSC1OC(COCc2ccc(Cl)cc2)C(O)C(OCc2ccc3ccccc3c2)C1NC(=O)CCNC(=N)N (centres unmarked) [Compound 200] | + (Indicates inhibition greater than . . . 50%)
COC[C@H]1OC(OCc2ccc3ccccc3c2)[C@H](NC(=O)CCNC(=N)N)[C@@H](OCc2ccc3ccccc3c2)[C@@H]1O (some centres unmarked) [Compound 38] | + (Indicates inhibition greater than . . . 50%)

Same assay, conditions: 10 micromolar; Example Library 4

SMILES | SSTS inhibition at 10 micromolar
COCC1OC(OCc2ccccc2)C(NC(=O)CCN)C(OCc2ccc(-c3ccccc3)cc2)C1O (centres unmarked) [Compound 227] | + (Indicates inhibition greater than . . . 50%)
COCC1OC(OCc2ccc(Cl)cc2)C(NC(=O)CCCNC(=N)N)C(OCc2ccc3ccccc3c2)C1O (centres unmarked) [Compound 259] | + (Indicates inhibition greater than . . . 50%)
COCC1OC(OCc2ccc(Cl)cc2)C(NC(=O)CCNC(=N)N)C(OCc2ccccc2)C1O (centres unmarked) [Compound 239] | + (Indicates inhibition greater than . . . 50%)
